Data: ChEMBL document CHEMBL5543153, “Discovery of a Potent Dual Son of Sevenless 1 (SOS1) and Epidermal Growth Factor Receptor (EGFR) Inhibitor for the Treatment of Prostate Cancer” (J Med Chem, 2024)
Calls of active or inactive are those of the source. The calls are words filed in the database; no cut-off is given here.

Key:
[1] = target: T1, Epidermal growth factor receptor (Homo sapiens, UniProt P00533); experiment: Inhibition of EGFR (unknown origin) using ultra ULight GT peptide as substrate at 10 uM incubated for 2 hrs relative to control
HepG2 = experiment: Antiproliferative activity against human HepG2 cells assessed as inhibition of cell growth incubated for 72 hrs by MTT assay; format: functional, cell-based
[2] = target: T2, Son of sevenless homolog 1 (Homo sapiens) (UniProt Q07889); experiment: Inhibition of SOS1 in human PC-3 cells assessed as downregulation of RAS-GTP expression at 0.5 uM incubated for 15 mins by Western blotting analysis; format: cell-based
T2 sequence (whole entry): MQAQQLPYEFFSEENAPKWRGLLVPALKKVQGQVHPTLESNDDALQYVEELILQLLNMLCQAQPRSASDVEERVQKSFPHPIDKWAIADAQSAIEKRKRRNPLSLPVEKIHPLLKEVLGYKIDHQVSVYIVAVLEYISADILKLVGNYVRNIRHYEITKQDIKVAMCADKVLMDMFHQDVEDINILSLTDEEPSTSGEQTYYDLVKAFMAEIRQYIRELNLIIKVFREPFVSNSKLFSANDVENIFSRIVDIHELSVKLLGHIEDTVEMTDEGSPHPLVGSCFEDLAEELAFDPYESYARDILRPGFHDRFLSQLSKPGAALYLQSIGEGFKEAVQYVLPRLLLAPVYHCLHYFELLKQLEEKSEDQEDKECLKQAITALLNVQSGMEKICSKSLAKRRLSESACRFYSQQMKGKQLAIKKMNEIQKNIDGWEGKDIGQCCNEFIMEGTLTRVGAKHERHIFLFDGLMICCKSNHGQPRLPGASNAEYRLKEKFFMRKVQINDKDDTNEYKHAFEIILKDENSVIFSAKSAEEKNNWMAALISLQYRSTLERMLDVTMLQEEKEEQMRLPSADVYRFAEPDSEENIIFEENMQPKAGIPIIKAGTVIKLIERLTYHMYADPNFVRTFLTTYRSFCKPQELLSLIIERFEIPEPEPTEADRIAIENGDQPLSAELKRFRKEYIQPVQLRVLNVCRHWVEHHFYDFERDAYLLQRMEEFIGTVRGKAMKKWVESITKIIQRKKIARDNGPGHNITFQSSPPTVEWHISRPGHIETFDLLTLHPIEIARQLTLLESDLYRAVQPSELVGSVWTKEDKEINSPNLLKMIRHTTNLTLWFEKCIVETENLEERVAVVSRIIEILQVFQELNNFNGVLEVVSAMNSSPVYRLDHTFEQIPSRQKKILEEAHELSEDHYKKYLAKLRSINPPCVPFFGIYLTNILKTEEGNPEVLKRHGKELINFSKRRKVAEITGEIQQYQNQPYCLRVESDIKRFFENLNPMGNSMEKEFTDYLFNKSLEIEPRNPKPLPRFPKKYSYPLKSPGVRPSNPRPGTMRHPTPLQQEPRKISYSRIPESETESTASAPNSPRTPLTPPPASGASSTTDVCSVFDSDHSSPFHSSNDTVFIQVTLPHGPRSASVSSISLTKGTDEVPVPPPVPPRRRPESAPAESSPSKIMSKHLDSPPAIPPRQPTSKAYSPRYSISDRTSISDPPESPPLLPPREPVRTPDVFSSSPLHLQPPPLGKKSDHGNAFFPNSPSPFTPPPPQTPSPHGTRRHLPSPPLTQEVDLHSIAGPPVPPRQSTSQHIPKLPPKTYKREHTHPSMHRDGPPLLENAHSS

[3] = target: T2, Son of sevenless homolog 1 (Homo sapiens); experiment: Inhibition of SOS1 in human PC-3 cells assessed as downregulation of ERK phosphorylation at 12.5 uM incubated for 15 mins by Western blotting analysis; format: cell-based
[4] = target: T1, Epidermal growth factor receptor; experiment: Inhibition of EGFR in human PC-3 cells assessed as downregulation of EGF-mediated AKT phosphorylation at 12.5 uM incubated for 15 mins in presence of EGF by Western blotting analysis; format: cell-based
[5] = target: T1, Epidermal growth factor receptor; experiment: Inhibition of EGFR in human PC-3 cells assessed as downregulation of AKT phosphorylation at 2.5 uM incubated for 15 mins by Western blotting analysis; format: cell-based
PC-3 [6] = experiment: Induction of apoptosis in human PC-3 cells assessed as early apoptotic cells at 2.5 uM by Annexin V-FITC staining based flow cytometry (reference value: 2.64%); format: functional
PC-3 [7] = experiment: Induction of apoptosis in human PC-3 cells assessed as necrotic cells at 0.5 uM by Annexin V-FITC staining based flow cytometry (reference value: 0.48%); format: functional
PC-3 [8] = experiment: Induction of cell cycle arrest in human PC-3 cells assessed as accumulation of cells at G2 phase at 0.5 uM by PI staining based flow cytometry (reference value: 7.75%); format: functional
PC-3 [9] = experiment: Induction of cell cycle arrest in human PC-3 cells assessed as accumulation of cells at G2 phase at 2.5 uM by PI staining based flow cytometry (reference value: 7.75%); format: functional
HUVEC [10] = experiment: Antiangiogenic activity in HUVEC cells assessed as reduction in tube formation at 0.5 to 12.5 uM incubated for 8 hrs by matrigel based microscopic analysis; format: functional, cell-based; conditions: Homo sapiens, dose 0.5-12.5 µM
HUVEC [11] = experiment: Antiangiogenic activity in HUVEC cells assessed as reduction of mean mesh at 0.5 to 12.5 uM incubated for 8 hrs by matrigel based microscopic analysis; format: functional, cell-based; conditions: Homo sapiens, dose 0.5-12.5 µM
PC-3 [12] = experiment: Antitumor activity against human PC-3 cells xenografted in BALB/c mouse assessed as reduction in tumor volume at 20 mg/kg,ip administrated once every 4 days for 24 days; format: functional, organism-based; conditions: time 24.0 day
PC-3 [13] = experiment: Antitumor activity against human PC-3 cells xenografted in BALB/c mouse assessed as reduction in tumor weight at 5 mg/kg,ip administrated once every 4 days for 24 days; format: functional, organism-based; conditions: time 24.0 day
PC-3 [14] = experiment: Antitumor activity against human PC-3 cells xenografted in BALB/c mouse assessed as reduction in number of CD31-positive cells in tumor tissue at ip administrated once every 4 days for 24 days by DAPI staining based immunohistochemical analysis; format: functional, organism-based; conditions: time 24.0 day
[15] = Toxicity in BALB/c mouse xenografted with human PC-3 cells assessed as lung pathological change at 5 mg/kg,ip administrated once every 4 days for 24 days by hematoxylin and eosin staining based analysis; format: organism-based; conditions: in vivo, 576 h, time 24 day
[16] = Toxicity in BALB/c mouse xenografted with human PC-3 cells assessed as lung pathological change at 20 mg/kg,ip administrated once every 4 days for 24 days by hematoxylin and eosin staining based analysis; format: organism-based; conditions: in vivo, 576 h, time 24 day
[17] = Toxicity in BALB/c mouse xenografted with human PC-3 cells assessed as kidney pathological change at 20 mg/kg,ip administrated once every 4 days for 24 days by hematoxylin and eosin staining based analysis; format: organism-based; conditions: in vivo, 576 h, time 24 day
[18] = Toxicity in BALB/c mouse xenografted with human PC-3 cells assessed as change in blood urea nitrogen level at 5 mg/kg,ip administrated once every 4 days for 24 days by automatic biochemical analyzer; format: organism-based; conditions: in vivo, 576 h, time 24 day
[19] = Toxicity in BALB/c mouse xenografted with human PC-3 cells assessed as change in blood urea nitrogen level at 20 mg/kg,ip administrated once every 4 days for 24 days by automatic biochemical analyzer; format: organism-based; conditions: in vivo, 576 h, time 24 day
[20] = Toxicity in BALB/c mouse xenografted with human PC-3 cells assessed as change in creatinine level at 5 mg/kg,ip administrated once every 4 days for 24 days by automatic biochemical analyzer; format: organism-based; conditions: in vivo, 576 h, time 24 day

T1 sequence (P00533 whole entry): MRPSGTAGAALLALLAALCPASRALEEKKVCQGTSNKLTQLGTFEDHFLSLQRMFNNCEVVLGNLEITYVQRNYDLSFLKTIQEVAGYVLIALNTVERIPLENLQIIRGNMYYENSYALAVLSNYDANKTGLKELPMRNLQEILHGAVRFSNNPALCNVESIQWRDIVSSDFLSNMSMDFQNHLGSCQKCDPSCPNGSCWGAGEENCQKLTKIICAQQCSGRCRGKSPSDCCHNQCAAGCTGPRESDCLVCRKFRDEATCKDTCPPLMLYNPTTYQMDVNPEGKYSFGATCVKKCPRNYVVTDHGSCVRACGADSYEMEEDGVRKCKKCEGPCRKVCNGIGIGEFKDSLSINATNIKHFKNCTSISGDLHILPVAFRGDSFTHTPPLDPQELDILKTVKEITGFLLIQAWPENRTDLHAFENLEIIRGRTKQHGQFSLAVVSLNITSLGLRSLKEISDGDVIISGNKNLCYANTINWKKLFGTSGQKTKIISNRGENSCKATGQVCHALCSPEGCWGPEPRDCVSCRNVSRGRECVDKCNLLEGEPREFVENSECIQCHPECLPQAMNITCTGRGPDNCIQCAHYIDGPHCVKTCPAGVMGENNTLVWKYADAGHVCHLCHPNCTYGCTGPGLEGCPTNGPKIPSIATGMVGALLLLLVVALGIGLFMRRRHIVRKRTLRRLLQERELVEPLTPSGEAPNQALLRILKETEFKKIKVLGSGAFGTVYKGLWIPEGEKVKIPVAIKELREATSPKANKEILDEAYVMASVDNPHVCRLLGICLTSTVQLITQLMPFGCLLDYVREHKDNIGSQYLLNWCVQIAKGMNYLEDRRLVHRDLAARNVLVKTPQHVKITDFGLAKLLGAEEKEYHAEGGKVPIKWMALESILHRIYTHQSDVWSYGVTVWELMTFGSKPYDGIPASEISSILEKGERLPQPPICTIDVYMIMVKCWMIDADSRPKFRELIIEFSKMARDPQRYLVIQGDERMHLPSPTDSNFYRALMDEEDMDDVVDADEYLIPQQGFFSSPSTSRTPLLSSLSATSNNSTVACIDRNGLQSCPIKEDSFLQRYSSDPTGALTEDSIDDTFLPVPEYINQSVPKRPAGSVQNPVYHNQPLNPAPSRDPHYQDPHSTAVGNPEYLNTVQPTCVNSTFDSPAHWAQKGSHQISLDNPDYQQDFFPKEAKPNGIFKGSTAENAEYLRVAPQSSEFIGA

Which results are given for `COc1cc2ncnc(N[C@H](C)c3cccc(F)c3)c2cc1OC1CCOCC1`?
inhibition [1]: 100%; Activity (HepG2): Active; inhibition [2]: Active; inhibition [3]: Active; inhibition [4]: Active; inhibition [5]: Active; Activity (PC-3 [6]): 17%; Activity (PC-3 [7]): 0.6%; Activity (PC-3 [8]): 9.71%; Activity (PC-3 [9]): 12.65%; Activity (HUVEC [10]): Active; Activity (HUVEC [11]): Active; Activity (PC-3 [12]): Active; Activity (PC-3 [13]): Active; Activity (PC-3 [14]): Dose-Dependent Effect; Activity [15]: Toxic; Activity [16]: Toxic; Activity [17]: Toxic; Activity [18]: Non-Toxic; Activity [19]: Non-Toxic; Activity [20]: Non-Toxic
